Legend:
[1] = test system: model of neuropathic pain; design: method as in PMID 33529752; details: cited from earlier work
[2] = target: T1, HDAC1 (Homo sapiens, UniProt Q13547); experiment: HDAC1 immunoprecipitation & activity assay on treated HCT-116 cells; type: cell-based; details: HCT-116 cells treated at 10 µM for 12 h; in comparison with SAHA
T1 construct: endogenous in cells; host or cells: HCT-116
Procedure: HDAC assay: To test the inhibition activity of compounds, the HDAC1 immunoprecipitation (IP) & Activity Assay Kit (Catalog # K342-25; Biovision) was used under the protocol provided by the kit. HCT-116 cell lines were plated in 6 wells and treated with the investigated compounds at 10 µM for 12 h. After incubation, the media was removed, and the cells were washed with PBS (EuroClone) solution (2X). Then, 200 µl/well of lysis buffer with protease inhibitor was added and the cells were scraped and incubated in ice for 30 min. After centrifugation at 10,000 g for 10 min at 4 °C, the supernatant was collected. One hundred micrograms of each extract was incubated with 6 µl of Rabbit HDAC1 antibody and Rabbit IgG and the volume was reached to 500 µl with PBS with protease inhibitors. After incubation at 4 °C overnight a rotary mixer, 25 µl of the protein-A/G bead slurry, previously washed with PBS (2X), was added to the samples and incubated for 1 h at 4 °C. The beads were recovered after 3 washes with 1 ml PBS, by centrifuging at 14,000 g for ~ 10 s and used for HDAC assay.
HDAC assay preparation: For each reaction, 168 µl reaction mix containing HDAC assay buffer and HDAC substrate was prepared, added to the sample and to background control tube, and incubated at 37 °C for 2 h. SAHA was used as a positive control. […] The fluorescence was read at Ex/Em = 380/500 nm with Tecan M1000 plate reader.

[3] = target: T2, Recombinant Human Bromodomain containing protein 4, bromodomain 2 (BRD4-BD2) (Homo sapiens, UniProt O60885); experiment: AlphaScreen bromodomain binding assay (Reaction Biology), BRD4-2
T2 construct: purchased Reaction Biology (RBC) RD-11–141; host or cells: E. coli
Procedure: (§1) The reader assay is a binding assay using AlphaScreen technology […] assay and was performed by Reaction Biology (www.reactionbiology.com). The biotinylated peptide binding to the reader domain of His-tagged protein is monitored by the singlet oxygen transfer from the Streptavidin-coated donor beads to the AlphaScreen Ni-chelate acceptor beads.
(§2) Reaction buffer: 50 mM Hepes, pH7.5, 100 mM NaCl, 0.05% CHAPS, 0.1% BSA, and 1% DMSO (the final DMSO concentration may differ depending on compound stock and test concentrations).
(§3) Bromodomain: BRD4-1: RBC Cat# RD-11–140: Recombinant Human Bromodomain containing protein 4, bromodomain 1 (aa 44–170; Genbank Accession # NM_058243), expressed in E. coli with N-terminal His-tag. MW = 17.8 kDa; BRD4-2: RBC Cat# RD-11–141: Recombinant Human Bromodomain containing protein 4, bromodomain 2 (aa 349–460;Genbank Accession # NM_058243), expressed in E. coli with N-terminal His-tag. MW = 15.7 kDa. Ligand (C-term-Biotin): Histone H4 peptide (1–21) K5/8/12/16Ac-Biotin. Detection beads: PerkinElmer: Donor beads: Streptavidin-coated donor beads; Acceptor beads: AlphaScreen Ni acceptor beads.
Reaction procedure: • Deliver 2.5X BRD in wells of reaction plate except No BRD control wells. Add buffer instead. • Deliver compounds in 100% DMSO into the BRD mixture by Acoustic technology (Echo550; nanoliter range). Spin down and pre-incubation for 30 min. • Deliver 5X Ligand. Spin and shake. • Incubate for 30 min at room temperature with gentle shaking. • Deliver 5X donor beads. Spin and shake. • Deliver 5X acceptor beads. Spin and shake. Then gentle shaking in the dark for 60 min. • Alpha measurement (Ex/Em = 680/520–620 nm) in Enspire.

[4] = test system: SNI mice; experiment: Hargreaves' plantar test, thermal allodynia in SNI mice; type: in vivo
Procedure: (§4) For i.n. administration, mice were slightly anesthetized by 2% isoflurane inhalation and placed in a supine position [30]. A 5 μl aliquot of solution (treatments or vehicle) was slowly dropped alternatively to each nostril with a micropipette tip.
Behavioral testing was performed before surgery to establish a baseline for comparison with post-surgical values.
Thermal nociceptive threshold was measured using Hargreaves’ device, as described [33]. Nociceptive response for thermal sensitivity was expressed as thermal paw withdrawal latency in seconds. All determinations were averaged for each animal.

[5] = test system: SNI mice; experiment: Mechanical allodynia (Dynamic Plantar Aesthesiometer) in SNI mice; type: in vivo
Procedure: Mice were randomly assigned to each treatment group. […] Maria Novella Romanelli, iBET762 (molibresib; (4S)-6-(4-Chlorophenyl)-N-ethyl-8-methoxy-1-methyl-4H-[1,2,4]triazolo[4,3,a][1,4] benzodiazepine-4-acetamide, and SAHA (vorinostat; suberoylanilide hydroxamic acid) (Sigma-Aldrich, Italy) were administered 15 min before the tests. Drugs were dissolved in 5% DMSO. Drug concentrations were prepared in such a way that the necessary dose could be administered in a volume of 10 µl per mouse by intranasal (i.n.) administration. The experimental protocol to test the effect of treatments on behavioral and in vitro tests included 3 control groups: untreated, vehicle (5% DMSO), and saline.
as §4
Behavioral testing was performed before surgery to establish a baseline for comparison with post-surgical values. Mono-neuropathy was induced by spared nerve injury and this model of pain in mice has been in use for several years [31]. The SNI procedure was performed as previously described [31].
Mechanical allodynia was measured by using Dynamic Plantar Aesthesiometer (Ugo Basile, Bologna, Italy), as described [32]. Nociceptive response for mechanical sensitivity was expressed as mechanical paw withdrawal threshold (PWT) in grams. PWT was quantified by an observer blinded to the treatment.

[6] = target: T3, Recombinant Human Bromodomain containing protein 4, bromodomain 1 (BRD4-BD1) (Homo sapiens, UniProt O60885); experiment: AlphaScreen bromodomain binding assay (Reaction Biology), BRD4-1; details: ligand Histone H4 peptide (1–21) K5/8/12/16Ac-Biotin; in comparison with (+)-JQ1; read-out: IC50 on BRD4-BD1
T3 construct: bromodomain 1 (aa 44–170); purchased Reaction Biology (RBC) RD-11–140; host or cells: E. coli
Procedure: as §1, §2, §3
Reaction procedure: • Deliver 2.5X BRD in wells of reaction plate except No BRD control wells. Add buffer instead. • Deliver compounds in 100% DMSO into the BRD mixture by Acoustic technology (Echo550; nanoliter range). […]

[7] = test system: naïve mice; experiment: Hot plate test, acute thermal pain in naïve mice; type: in vivo; details: 5 to 500 µM i.n.
Text: Mice were randomly assigned to each treatment group. To evaluate the pharmacological profile of SUM35 (N-hydroxy-6-(1-methyl-6-phenyl-4H-benzo[f][1,2,4]triazolo[4,3-a][1,4]diazepin-8-yl)hex-5-ynamide), SUM52 ((S)-N-hydroxy-7-(2-(1-methyl-6-phenyl-4H-benzo[f][1,2,4]triazolo[4,3-a][1,4]diazepin-4-yl)acetamido)heptanamide) (Fig. 1F), synthesized in the laboratory of Prof. Maria Novella Romanelli, iBET762 (molibresib; (4S)-6-(4-Chlorophenyl)-N-ethyl-8-methoxy-1-methyl-4H-[1,2,4]triazolo[4,3,a][1,4] benzodiazepine-4-acetamide, and SAHA (vorinostat; suberoylanilide hydroxamic acid) (Sigma-Aldrich, Italy) were administered 15 min before the tests. Drugs were dissolved in 5% DMSO. Drug concentrations were prepared in such a way that the necessary dose could be administered in a volume of 10 µl per mouse by intranasal (i.n.) administration. The experimental protocol to test the effect of treatments on behavioral and in vitro tests included 3 control groups: untreated, vehicle (5% DMSO), and saline. A representative figure of the experimental protocol in naïve (C) and SNI (F) mice has been inserted in Supplementary Fig. 1.
For i.n. administration, mice were slightly anesthetized by 2% isoflurane inhalation and placed in a supine position. A 5 μl aliquot of solution (treatments or vehicle) was slowly dropped alternatively to each nostril with a micropipette tip.
Animals were habituated to the testing environment daily for at least 2 days before baseline testing. To evaluate onset and progression of pain hypersensitivity, neuropathic mice were monitored by measuring nociceptive responses every 30 min for 3 h before surgery or 3, 7, 10, and 14 days after nerve surgery. Experiments were performed on post-surgery day 7 and 14 when the pain hypersensitivity was well established. Each mouse served as its own control, the responses being measured both before and after surgery. All testing was performed with a blind procedure.

[8] = time-course comparison, combination i-BET762 10 µg, SAHA 3 µg

T1 sequence (Q13547 whole entry): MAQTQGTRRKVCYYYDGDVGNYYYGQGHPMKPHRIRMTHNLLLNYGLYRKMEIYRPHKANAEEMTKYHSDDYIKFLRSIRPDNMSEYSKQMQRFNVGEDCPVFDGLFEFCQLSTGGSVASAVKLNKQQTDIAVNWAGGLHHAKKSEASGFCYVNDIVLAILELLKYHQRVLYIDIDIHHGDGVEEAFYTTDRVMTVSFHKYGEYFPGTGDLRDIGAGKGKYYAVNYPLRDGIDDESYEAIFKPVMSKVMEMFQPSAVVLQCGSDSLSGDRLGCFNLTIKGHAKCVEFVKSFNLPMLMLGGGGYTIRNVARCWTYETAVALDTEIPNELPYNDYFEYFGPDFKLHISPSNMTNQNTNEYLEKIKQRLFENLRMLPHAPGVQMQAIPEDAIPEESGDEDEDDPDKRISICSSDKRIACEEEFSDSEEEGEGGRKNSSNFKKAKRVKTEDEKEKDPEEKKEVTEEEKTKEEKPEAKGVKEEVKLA

Compound | time of peak of analgesic activity after administration [1] [min] | inhibition of HDAC1 enzymatic activity [2] | preference between BRD4-BD1 and BRD4-BD2 domains ([3]; BRD4-BD1 vs BRD4-BD2) | IC50 ([3]; ligand Histone H4 peptide (1–21) K5/8/12/16Ac-Biotin, in comparison with (+)-JQ1, read-out: IC50 on BRD4-BD2) [nM] | thermal antiallodynic activity, ipsilateral side ([4]; 100 µM i.n.) | thermal antiallodynic activity, ipsilateral side ([4]; 200 µM i.n.) | thermal antiallodynic efficacy compared with SAHA + iBET762 combination [4, 8] | mechanical antiallodynic activity, ipsilateral side ([5]; 100 µM i.n.) | mechanical antiallodynic activity, ipsilateral side ([5]; 200 µM i.n.) | mechanical antiallodynic efficacy compared with SAHA + iBET762 combination [5, 8] | IC50 [6] [nM] | thermal antinociceptive effect (hot plate), whole dose range [7]
O=C(CCCCCCC(=O)Nc1ccccc1)NO [SAHA, suberoylanilide hydroxamic acid] | 60 |  |  |  |  |  |  |  |  |  |  | 
Cc1nnc2n1-c1ccc(C#CCCCC(=O)NO)cc1C(c1ccccc1)=NC2 [SUM35, N-hydroxy-6-(1-methyl-6-phenyl-4H-benzo[f][1,2,4]triazolo[4,3-a][1,4]diazepin-8-yl)hex-5-ynamide] |  | Partial inhibition | preferential interaction for BRD4-BD2 | 118 | reaching the statistical significance | did not produce any significant increase of pain threshold | lower antiallodynic activity | reaching the statistical significance | did not produce any significant increase of pain threshold | lower antiallodynic activity | 1720 | did not produce any significant increase of the thermal pain threshold
CCNC(=O)C[C@@H]1N=C(c2ccc(Cl)cc2)c2cc(OC)ccc2-n2c(C)nnc21 [iBET762, (4S)-6-(4-Chlorophenyl)-N-ethyl-8-methoxy-1-methyl-4H-[1,2,4]triazolo[4,3,a][1,4] benzodiazepine-4-acetamide] | 90 |  |  |  |  |  |  |  |  |  |  | 
